Key:
Format in all cases: cell-based
[1] = biological target: human A2A receptor (Homo sapiens, UniProt P29274); assay: Functional A2A receptor activity, recombinant HEK293 cells, cAMP (HTRF), agonist NECA; set-up: expressed in transfected cells; host or cells: HEK293; settings: read-out: Functional A2A receptor activity, HEK293, cAMP, IC50
Summary of the method: (§1)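 Cells were seeded, then treated with forskolin, test compound and agonist. After a 30 min incubation, HTRF detection reagents were added and intracellular cAMP was read. Values were scaled between an inhibitor control and DMSO before fitting.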

[2] = biological target: T1, human A1 receptor (Homo sapiens, UniProt P30542); assay: Functional A1 receptor activity, recombinant CHO cells, cAMP (HTRF), forskolin, agonist CPA; settings: recombinant CHO cells, forskolin, agonist CPA; read-out: Functional A1 receptor activity, CHO, cAMP, IC50
T1 construct: expressed in transfected cells; host or cells: CHO
T1 sequence (P30542 1-326): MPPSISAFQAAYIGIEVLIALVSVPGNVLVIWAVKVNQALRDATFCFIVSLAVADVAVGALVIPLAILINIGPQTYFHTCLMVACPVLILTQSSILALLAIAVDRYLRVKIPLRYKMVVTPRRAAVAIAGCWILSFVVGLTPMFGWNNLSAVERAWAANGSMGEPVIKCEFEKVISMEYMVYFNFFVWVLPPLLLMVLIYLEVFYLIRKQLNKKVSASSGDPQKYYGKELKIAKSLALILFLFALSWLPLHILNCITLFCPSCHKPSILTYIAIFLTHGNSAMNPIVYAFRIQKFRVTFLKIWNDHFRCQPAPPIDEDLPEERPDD
Summary of the method: (§2)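 Recombinant CHO lines carrying either receptor receive forskolin, compound and the matching agonist, CPA or IB-MECA. After 30 min, HTRF reagents are added and cAMP is quantified. Values are normalized to inhibitor and neutral DMSO controls, then fitted.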

[3] = biological target: T2, human A2B receptor (Homo sapiens, UniProt P29275); assay: Functional A2B receptor activity, recombinant HEK293 cells, cAMP (HTRF), agonist NECA; settings: read-out: Functional A2B receptor activity, HEK293, cAMP, IC50
T2 construct: expressed in transfected cells; host or cells: HEK293
T2 sequence (P29275 1-332): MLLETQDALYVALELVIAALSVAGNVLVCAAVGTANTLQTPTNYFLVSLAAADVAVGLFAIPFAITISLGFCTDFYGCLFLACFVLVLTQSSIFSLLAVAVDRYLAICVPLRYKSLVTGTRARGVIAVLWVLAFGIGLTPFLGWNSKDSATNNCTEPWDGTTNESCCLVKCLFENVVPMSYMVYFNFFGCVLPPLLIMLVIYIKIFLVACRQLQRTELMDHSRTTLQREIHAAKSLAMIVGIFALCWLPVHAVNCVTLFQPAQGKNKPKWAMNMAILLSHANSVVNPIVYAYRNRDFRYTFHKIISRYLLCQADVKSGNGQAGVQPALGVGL
Summary of the method: as §1

[4] = biological target: T3, human A3 receptor (Homo sapiens, UniProt P0DMS8); assay: Functional A3 receptor activity, recombinant CHO cells, cAMP (HTRF), forskolin, agonist IB-MECA; settings: recombinant CHO cells, forskolin, agonist IB-MECA; read-out: Functional A3 receptor activity, CHO, cAMP, IC50
T3 construct: expressed in transfected cells; host or cells: CHO
T3 sequence (P0DMS8 1-318): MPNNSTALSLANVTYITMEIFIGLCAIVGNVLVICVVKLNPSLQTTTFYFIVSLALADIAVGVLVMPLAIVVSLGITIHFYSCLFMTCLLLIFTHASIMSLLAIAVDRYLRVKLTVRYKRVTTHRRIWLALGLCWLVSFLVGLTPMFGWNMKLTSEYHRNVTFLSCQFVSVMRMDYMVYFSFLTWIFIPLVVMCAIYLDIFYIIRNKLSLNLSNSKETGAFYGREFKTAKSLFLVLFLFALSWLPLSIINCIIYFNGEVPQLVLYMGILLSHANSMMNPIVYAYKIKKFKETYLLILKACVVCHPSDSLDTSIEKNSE
Summary of the method: as §2

human A2A receptor, sequence (P29274 whole entry): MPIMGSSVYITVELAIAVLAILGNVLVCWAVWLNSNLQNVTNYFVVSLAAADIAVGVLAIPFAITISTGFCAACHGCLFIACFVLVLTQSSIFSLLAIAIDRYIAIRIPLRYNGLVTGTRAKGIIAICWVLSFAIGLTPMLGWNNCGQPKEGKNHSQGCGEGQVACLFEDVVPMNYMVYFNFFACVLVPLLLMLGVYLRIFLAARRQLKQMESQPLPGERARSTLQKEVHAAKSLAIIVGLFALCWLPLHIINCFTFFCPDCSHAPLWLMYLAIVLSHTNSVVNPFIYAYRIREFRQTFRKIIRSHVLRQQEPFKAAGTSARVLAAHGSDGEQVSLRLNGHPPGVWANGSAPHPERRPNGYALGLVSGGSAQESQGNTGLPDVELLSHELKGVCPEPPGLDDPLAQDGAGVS

| Structure (SMILES) | IC50 [1] | IC50 [2] | IC50 [3] | IC50 [4] |
| --- | --- | --- | --- | --- |
| COCCOCCn1cc(-c2cnc(OC)c3nc(NC(=O)N4CCC5(CCOCC5)C4)sc23)cn1 [Compound 103, 8-Oxa-2-aza-spiro[4.5]decane-2-carboxylic acid (4-methoxy-7-{1-[2-(2-methoxy-ethoxy)-ethyl]-1H-pyrazol-4-yl}-thiazolo[4,5-c]pyridin-2-yl)-amide] | < 10 nM | < 1000 nM | < 100 nM | > 1000 nM |
| COc1ncc(C2=CCOCC2)c2sc(NC(=O)N3CCC(C(N)=O)CC3)nc12 [Compound 106, N1-[7-(3,6-dihydro-2H-pyran-4-yl)-4-methoxy-[1,3]thiazolo[4,5-c]pyridin-2-yl]piperidine-1,4-dicarboxamide] | < 10 nM | < 1000 nM | < 100 nM | > 1000 nM |
| COc1ncc(C2=CCOCC2)c2sc(NC(=O)N3CCC4(CCOC4)C3)nc12 (centres unmarked) [Compound 108, N-[7-(3,6-dihydro-2H-pyran-4-yl)-4-methoxy-[1,3]thiazolo[4,5-c]pyridin-2-yl]-2-oxa-7-azaspiro[4.4]nonane-7-carboxamide] | < 10 nM | < 1000 nM | < 10 nM | > 1000 nM |
| COc1ncc(-c2ccccc2)c2sc(NC(=O)c3ccc(C(=O)O)cc3)nc12 [Compound 109, 4-({4-methoxy-7-phenyl-[1,3]thiazolo[4,5-c]pyridin-2-yl}carbamoyl)benzoic acid] | < 10 nM | > 1000 nM | < 10 nM | > 1000 nM |
| COc1ncc(-c2ccccc2)c2sc(NC(=O)c3ccc(-c4nnn[nH]4)cc3)nc12 [Compound 110, N-{4-methoxy-7-phenyl-[1,3]thiazolo[4,5-c]pyridin-2-yl}-4-(1H-1,2,3,4-tetrazol-5-yl)benzamide] | < 10 nM | > 1000 nM | < 100 nM | > 1000 nM |
| COc1ncc(C2CCC(F)(F)CC2)c2sc(NC(=O)N3CCC4(CCOCC4)C3)nc12 [Compound 111, 8-Oxa-2-aza-spiro[4.5]decane-2-carboxylic acid [7-(4,4-difluoro-cyclohexyl)-4-methoxy-thiazolo[4,5-c]pyridin-2-yl]-amide] | < 10 nM | < 1000 nM | < 100 nM | > 1000 nM |
| COc1ncc(-c2ccc(C)s2)c2sc(NC(=O)N3CCC4(CCOCC4)C3)nc12 [Compound 113, 8-Oxa-2-aza-spiro[4.5]decane-2-carboxylic acid [4-methoxy-7-(5-methyl-thiophen-2-yl)-thiazolo[4,5-c]pyridin-2-yl]-amide] | < 10 nM | > 1000 nM | < 100 nM | > 1000 nM |
| COc1ncc(-c2ccc(C)o2)c2sc(NC(=O)N3CCC4(CCOCC4)C3)nc12 [Compound 114, 8-Oxa-2-aza-spiro[4.5]decane-2-carboxylic acid [4-methoxy-7-(5-methyl-furan-2-yl)-thiazolo[4,5-c]pyridin-2-yl]-amide] | < 10 nM | < 1000 nM | < 100 nM | > 1000 nM |
| COc1ncc(C2=CCOCC2)c2sc(NC(=O)N3CC[C@@]4(CCCNC4)C3)nc12 [Compound 121, (R)-2,7-Diaza-spiro[4.5]decane-2-carboxylic acid [7-(3,6-dihydro-2H-pyran-4-yl)-4-methoxy-thiazolo[4,5-c]pyridin-2-yl]-amide] | < 10 nM | > 1000 nM | < 100 nM | > 1000 nM |
| COc1ncc(C2=CCOCC2)c2sc(NC(=O)N3CC[C@]4(CCCNC4)C3)nc12 [Compound 122, (S)-2,7-Diaza-spiro[4.5]decane-2-carboxylic acid [7-(3,6-dihydro-2H-pyran-4-yl)-4-methoxy-thiazolo[4,5-c]pyridin-2-yl]-amide] | < 10 nM | > 1000 nM | < 100 nM | > 1000 nM |
| COc1ncc(-c2ccccc2)c2sc(NC(=O)N3CCC(C(=O)N(C)C)CC3)nc12 [Compound 123, Piperidine-1,4-dicarboxylic acid 4-dimethylamide 1-[(4-methoxy-7-phenyl-thiazolo[4,5-c]pyridin-2-yl)-amide]] | < 10 nM | > 1000 nM | < 100 nM | > 1000 nM |
| COc1ncc(-c2ccnc(N)c2)c2sc(NC(=O)N3CCC4(CCOCC4)C3)nc12 [Compound 124, 8-Oxa-2-aza-spiro[4.5]decane-2-carboxylic acid [7-(2-amino-pyridin-4-yl)-4-methoxy-thiazolo[4,5-c]pyridin-2-yl]-amide] | < 10 nM | > 1000 nM | < 10 nM | > 1000 nM |
| COc1ncc(C2=CCOCC2)c2sc(NC(=O)c3ccc(C(=O)N4CCN(C)CC4)cc3)nc12 [Compound 125, N-[7-(3,6-Dihydro-2H-pyran-4-yl)-4-methoxy-thiazolo[4,5-c]pyridin-2-yl]-4-(4-methyl-piperazine-1-carbonyl)-benzamide] | < 10 nM | < 1000 nM | < 10 nM | > 1000 nM |
| COc1ncc(C2=CCOCC2)c2sc(NC(=O)c3ccc(C(=O)N4CCC(C)(O)CC4)cc3)nc12 [Compound 129, N-[7-(3,6-Dihydro-2H-pyran-4-yl)-4-methoxy-thiazolo[4,5-c]pyridin-2-yl]-4-(4-hydroxy-4-methyl-piperidine-1-carbonyl)-benzamide] | < 10 nM | < 1000 nM | < 100 nM | > 1000 nM |
| COc1ncc(C2=CCOCC2)c2sc(NC(=O)c3cnc4ccccn34)nc12 [Compound 135, Imidazo[1,2-a]pyridine-3-carboxylic acid [7-(3,6-dihydro-2H-pyran-4-yl)-4-methoxy-thiazolo[4,5-c]pyridin-2-yl]-amide] | < 10 nM | < 1000 nM | < 10 nM | < 1000 nM |
| COc1ncc(C2=CCOCC2)c2sc(NC(=O)c3c[nH]c(-c4cccnc4)n3)nc12 [Compound 140, 2-Pyridin-3-yl-1H-imidazole-4-carboxylic acid [7-(3,6-dihydro-2H-pyran-4-yl)-4-methoxy-thiazolo[4,5-c]pyridin-2-yl]-amide] | < 10 nM | < 1000 nM | < 100 nM | > 1000 nM |
| COc1ncc(-c2ccc(F)c(O)c2)c2sc(NC(=O)N3CCC4(CCOCC4)C3)nc12 [Compound 149, 8-Oxa-2-aza-spiro[4.5]decane-2-carboxylic acid [7-(4-fluoro-3-hydroxy-phenyl)-4-methoxy-thiazolo[4,5-c]pyridin-2-yl]-amide] | < 10 nM | < 1000 nM | < 10 nM | > 1000 nM |
| COc1ncc(-c2cc(O)ccc2F)c2sc(NC(=O)N3CCC4(CCOCC4)C3)nc12 [Compound 150, 8-Oxa-2-aza-spiro[4.5]decane-2-carboxylic acid [7-(2-fluoro-5-hydroxy-phenyl)-4-methoxy-thiazolo[4,5-c]pyridin-2-yl]-amide] | < 10 nM | > 1000 nM | < 100 nM | > 1000 nM |
| COc1ncc(-c2cccc(O)c2)c2sc(NC(=O)N3CCC4(CCOCC4)C3)nc12 [Compound 153, 8-Oxa-2-aza-spiro[4.5]decane-2-carboxylic acid [7-(3-hydroxy-phenyl)-4-methoxy-thiazolo[4,5-c]pyridin-2-yl]-amide] | < 10 nM | < 1000 nM | < 10 nM | > 1000 nM |
| COc1ncc(C2=CCOCC2)c2sc(NC(=O)c3cnn(-c4ccccc4)c3)nc12 [Compound 156, 1-Phenyl-1H-pyrazole-4-carboxylic acid [7-(3,6-dihydro-2H-pyran-4-yl)-4-methoxy-thiazolo[4,5-c]pyridin-2-yl]-amide] | < 10 nM | < 1000 nM | < 10 nM | > 1000 nM |

Reference: patent publication US12344623B2, “Thiazolopyridine derivatives as adenosine receptor antagonists” (Merck Patent GmbH, priority 2019, dated 2025)
